Measurements taken from patent US12624034B2, “Non-covalent modifiers of AKT1 and uses thereof” (Terremoto Biosciences, Inc., priority 2023, dated 2026).
Read-outs that look alike come from different tables or passages of the source. Values belong to the molecule of their own block, whether it stands above or below them.

What was measured:
AKT1 WT = target: T1, AKT1 WT (Homo sapiens, UniProt P31749); experiment: Live cell AKT1 WT target engagement by NanoBRET competitive probe displacement in HEK293 cells; format: binding; conditions: 2 h at 37° C., read-out: AKT1 WT IC50
T1 construct: expressed in transfected cells; host or cells: HEK293

AKT2 = target: T2, AKT2 (Homo sapiens, UniProt P31751); experiment: Live cell AKT2 target engagement by NanoBRET competitive probe displacement in HEK293 cells; format: binding; conditions: 2 h at 37° C., read-out: AKT2 IC50
T2 construct: expressed in transfected cells; host or cells: HEK293

[1] = NanoBRET live cell target engagement, HEK293 cells
[2] = NanoBRET competitive probe displacement, live HEK293 cells

T2 sequence (P31751 whole entry): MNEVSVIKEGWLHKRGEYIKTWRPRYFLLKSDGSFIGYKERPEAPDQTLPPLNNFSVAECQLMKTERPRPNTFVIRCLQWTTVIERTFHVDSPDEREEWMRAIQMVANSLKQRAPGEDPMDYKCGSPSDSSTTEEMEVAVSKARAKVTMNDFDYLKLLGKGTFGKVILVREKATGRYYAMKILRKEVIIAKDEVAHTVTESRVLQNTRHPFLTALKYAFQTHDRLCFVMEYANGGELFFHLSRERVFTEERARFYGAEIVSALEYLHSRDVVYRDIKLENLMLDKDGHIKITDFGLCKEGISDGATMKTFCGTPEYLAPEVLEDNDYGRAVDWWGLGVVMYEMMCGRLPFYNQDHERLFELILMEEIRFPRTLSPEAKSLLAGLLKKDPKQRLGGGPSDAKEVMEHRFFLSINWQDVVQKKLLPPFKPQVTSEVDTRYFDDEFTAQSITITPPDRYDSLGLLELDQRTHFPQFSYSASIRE
T1 sequence (P31749 whole entry): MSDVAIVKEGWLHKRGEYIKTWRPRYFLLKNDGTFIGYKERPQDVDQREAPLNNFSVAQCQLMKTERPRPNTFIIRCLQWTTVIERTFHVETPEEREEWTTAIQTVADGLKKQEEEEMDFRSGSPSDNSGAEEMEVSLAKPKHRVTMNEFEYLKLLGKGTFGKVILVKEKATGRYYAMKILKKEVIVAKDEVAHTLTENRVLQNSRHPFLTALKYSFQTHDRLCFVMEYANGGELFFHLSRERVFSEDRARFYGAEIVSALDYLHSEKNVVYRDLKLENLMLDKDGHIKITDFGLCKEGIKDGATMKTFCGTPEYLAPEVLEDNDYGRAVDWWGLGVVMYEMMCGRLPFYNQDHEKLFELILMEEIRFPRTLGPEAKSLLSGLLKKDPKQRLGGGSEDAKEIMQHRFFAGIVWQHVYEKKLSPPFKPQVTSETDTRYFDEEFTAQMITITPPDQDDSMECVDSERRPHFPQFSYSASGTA

IC50 (AKT1 WT; [1]): 8.65 nM
IC50 (AKT2; [1]): 82.2 nM
SMILES: Nc1ncccc1-c1nc2ccc(-n3cccn3)nc2n1-c1ccc2c(c1)CC[C@@H]2NC(=O)c1ccc(F)c(Cl)c1 [Compound 337]

IC50 (AKT1 WT; [1]): 27.8 nM
IC50 (AKT2; [1]): 389 nM
SMILES: Cc1csc(-c2ccc3nc(-c4cccnc4N)n(-c4ccc5c(c4)CC[C@@H]5NC(=O)c4ccn(C)n4)c3n2)n1 [Compound 374, (S)—N-(5-(2-(2-aminopyridin-3-yl)-5-(4-methylthiazol-2-yl)-3H-imidazo[4,5-b]pyridin-3-yl)-2,3-dihydro-1H-inden-1-yl)-1-methyl-1H-pyrazole-3-carboxamide]

IC50 (AKT1 WT; [1]): 19.1 nM
IC50 (AKT2; [1]): 41.3 nM
SMILES: Nc1ncccc1-c1nc2ccc(-n3cccn3)nc2n1-c1ccc2c(c1)CC[C@@H]2NC(=O)c1cc(F)cc(F)c1 [Compound 331]

IC50 (AKT1 WT; [1]): 3.21 nM
IC50 (AKT2; [1]): 9.39 nM
SMILES: Cc1nccnc1C(=O)N[C@H]1CCc2cc(-n3c(-c4cccnc4N)nc4ccc(-c5cccc(N6CCN(C)CC6)c5)nc43)ccc21 [Compound 269]

IC50 (AKT1 WT; [2]): 805 nM
IC50 (AKT2; [2]): 3780 nM
SMILES: C#Cc1cc(-n2nccn2)nc2c1nc(-c1cccnc1N)n2-c1ccc2c(c1)CC[C@@H]2NC(=O)c1ccc(C(F)F)nc1 [Compound 583]

IC50 (AKT1 WT; [1]): 41.8 nM
IC50 (AKT2; [1]): 1960 nM
SMILES: Cc1coc(-c2ccc3nc(-c4cccnc4N)n(-c4ccc5c(c4)CC[C@@H]5n4ccnn4)c3n2)n1 [Compound 245, (S)-3-(3-(1-(1H-1,2,3-triazol-1-yl)-2,3-dihydro-1H-inden-5-yl)-5-(4-methyloxazol-2-yl)-3H-imidazo[4,5-b]pyridin-2-yl)pyridin-2-amine]

IC50 (AKT1 WT; [2]): 21.2 nM
IC50 (AKT2; [2]): 422 nM
SMILES: Nc1ncccc1-c1nc2ccc(-n3cccn3)nc2n1-c1ccc2c(c1)CC[C@@H]2NC1Cc2cccnc2C1 (stereo partly shown) [Compound 530]

IC50 (AKT1 WT; [2]): 71.5 nM
IC50 (AKT2; [2]): 7510 nM
SMILES: Cn1ccc(Oc2ccc3nc(-c4cccnc4N)n(-c4ccc5c(c4)CC[C@@H]5NC(=O)c4cnc(C(F)F)s4)c3n2)n1 [Compound 558]

IC50 (AKT1 WT; [2]): 39.2 nM
IC50 (AKT2; [2]): 1220 nM
SMILES: Cn1ccc(N2CCC(N[C@@H]3c4ccc(-n5c(-c6cccnc6N)nc6ccc(-n7cccn7)nc65)cc4CC3F)CC2)n1 (stereo partly shown) [Compound 519]

IC50 (AKT1 WT; [2]): 524 nM
IC50 (AKT2; [2]): > 10000 nM
SMILES: Nc1ncccc1-c1nc2ccc(-n3cccn3)nc2n1-c1ccc2c(c1)CC(F)C2NC1CCN(C(=O)C2CC2)CC1 (stereo not shown) [Compound 522]

IC50 (AKT1 WT; [2]): 5.67 nM
IC50 (AKT2; [2]): 268 nM
SMILES: COc1csc(-c2ccc3nc(-c4cccnc4N)n(-c4ccc5c(c4)CC(F)[C@@H]5NC4CCN(C(=O)C5CC5)CC4)c3n2)n1 (stereo partly shown) [Compound 559]

IC50 (AKT1 WT; [1]): 17.7 nM
IC50 (AKT2; [1]): 305 nM
SMILES: COc1cc(C(=O)N[C@H]2CCc3cc(-n4c(-c5cccnc5N)nc5ccc(-n6cccn6)nc54)ccc32)ccc1F [Compound 336]

IC50 (AKT1 WT; [1]): 7.55 nM
IC50 (AKT2; [1]): 164 nM
SMILES: COc1cc(C(=O)N[C@H]2CCc3cc(-n4c(-c5cccnc5N)nc5ccc(-n6cccn6)nc54)ccc32)ccc1O [Compound 260]

IC50 (AKT1 WT; [2]): 81.5 nM
IC50 (AKT2; [2]): > 10000 nM
SMILES: Nc1ncccc1-c1nc2ccc(-n3cccn3)nc2n1-c1ccc2c(c1)CC[C@H]2NC1CCN(C(=O)C2CC2)CC1 [Compound 500]

IC50 (AKT1 WT; [1]): 7.96 nM
IC50 (AKT2; [1]): 100 nM
SMILES: Cc1ccc(C(=O)N[C@H]2CCc3cc(-n4c(-c5cccnc5N)nc5ccc(-c6cnn(C)n6)nc54)ccc32)cn1 [Compound 268]

IC50 (AKT1 WT; [2]): 130 nM
IC50 (AKT2; [2]): 2780 nM
SMILES: Nc1ncccc1-c1nc2ccc(-n3cccn3)nc2n1-c1ccc2c(c1)CC[C@@H]2NC1CCN(C(=O)C(F)F)CC1 [Compound 475]

IC50 (AKT1 WT; [1]): 526 nM
IC50 (AKT2; [1]): 6850 nM
SMILES: CC(=O)NCC#Cc1ccc2nc(-c3cccnc3N)n(-c3ccc4c(c3)CC[C@@H]4NC(=O)c3ccc(C)nc3)c2n1 [Compound 327]

IC50 (AKT1 WT; [1]): 18.2 nM
IC50 (AKT2; [1]): 1320 nM
SMILES: Nc1ncccc1-c1nc2ccc(-n3cccn3)nc2n1-c1ccc2c(c1)CC[C@@H]2n1cc(C(F)F)nn1 [Compound 326]

IC50 (AKT1 WT; [2]): 52.4 nM
IC50 (AKT2; [2]): 2420 nM
SMILES: Nc1ncccc1-c1nc2ccc(-n3ccc(Oc4ccccn4)n3)nc2n1-c1ccc2c(c1)CC[C@@H]2NC1CCN(C(=O)C2CC2)CC1 [Compound 574]

IC50 (AKT1 WT; [1]): 10.5 nM
IC50 (AKT2; [1]): 70.4 nM
SMILES: Cc1ccc(C(=O)N[C@H]2CCc3cc(-n4c(-c5cccnc5N)nc5ccc(-c6ncc(C)s6)nc54)ccc32)cn1 [Compound 314]

More lines, now with the values behind:

SMILES: Cn1ccc(-c2cn([C@H]3CCc4cc(-n5c(-c6cccnc6N)nc6ccc(-n7cccn7)nc65)ccc43)nn2)n1 [Compound 197]
IC50 (AKT1 WT; [1]): 14.7 nM
IC50 (AKT2; [1]): 95.3 nM

SMILES: Cc1cnc2ccc(C(=O)N[C@H]3CCc4cc(-n5c(-c6cccnc6N)nc6ccc(-n7cccn7)nc65)ccc43)cn12 [Compound 71]
IC50 (AKT1 WT; [1]): 4.63 nM
IC50 (AKT2; [1]): 69.7 nM

SMILES: Nc1ncccc1-c1nc2ccc(-n3cccn3)nc2n1-c1ccc2c(c1)CC[C@@H]2n1ccnn1 [Compound 188]
IC50 (AKT1 WT; [1]): 20 nM
IC50 (AKT2; [1]): 650 nM

SMILES: CN(C)Cc1ncccc1C(=O)N[C@H]1CCc2cc(-n3c(-c4cccnc4N)nc4ccc(-n5cccn5)nc43)ccc21 [Compound 104]
IC50 (AKT1 WT; [1]): 317 nM
IC50 (AKT2; [1]): > 10000 nM

SMILES: Cc1ccc2nc(-c3cccnc3N)n(-c3ccc4c(c3)CC[C@@H]4NC(=O)c3ccc(C(F)F)nc3)c2n1 [Compound 146]
IC50 (AKT1 WT; [1]): 508 nM
IC50 (AKT2; [1]): > 10000 nM

SMILES: Cn1nccc1Cc1nncn1[C@H]1CCc2cc(-n3c(-c4cccnc4N)nc4ccc(-n5cccn5)nc43)ccc21 [Compound 222]
IC50 (AKT1 WT; [1]): 146 nM
IC50 (AKT2; [1]): 1400 nM

SMILES: Cc1ccc(C(=O)N[C@H]2CCc3cc(-n4c(-c5cccnc5N)nc5ccc(-c6ccn(C(F)F)n6)nc54)ccc32)cn1 [Compound 73]
IC50 (AKT1 WT; [1]): 9.03 nM
IC50 (AKT2; [1]): 49.8 nM

SMILES: C#Cc1cc(C(=O)N[C@H]2CCc3cc(-n4c(-c5cccnc5N)nc5ccc(-n6cccn6)nc54)ccc32)ccn1 [Compound 105]
IC50 (AKT1 WT; [1]): 11.2 nM
IC50 (AKT2; [1]): 109 nM

SMILES: Nc1ncccc1-c1nc2ccc(-n3cccn3)nc2n1-c1ccc2c(c1)CC[C@@H]2NC(=O)c1cccnc1Cl [Compound 108]
IC50 (AKT1 WT; [1]): 18.8 nM
IC50 (AKT2; [1]): 223 nM

SMILES: Nc1ncccc1-c1nc2c(F)cc(-n3cccn3)nc2n1-c1ccc2c(c1)CC[C@@H]2NC(=O)c1ccc(C(F)F)nc1 [Compound 165, (S)—N-(5-(2-(2-aminopyridin-3-yl)-7-fluoro-5-(1H-pyrazol-1-yl)-3H-imidazo[4,5-b]pyridin-3-yl)-2,3-dihydro-1H-inden-1-yl)-6-(difluoromethyl)nicotinamide]
IC50 (AKT1 WT; [1]): 11.6 nM
IC50 (AKT2; [1]): 100 nM

SMILES: Nc1ncccc1-c1nc2ccc(-n3cccn3)nc2n1-c1ccc2c(c1)CC[C@@H]2NC(=O)c1cccnc1C1CC1 [Compound 103]
IC50 (AKT1 WT; [1]): 25.2 nM
IC50 (AKT2; [1]): 316 nM

SMILES: Nc1ncccc1-c1nc2ccc(-n3cccn3)nc2n1-c1ccc2c(c1)CC[C@@H]2NC(=O)c1cccc(CO)c1 [Compound 240]
IC50 (AKT1 WT; [1]): 5.82 nM
IC50 (AKT2; [1]): 59.3 nM

SMILES: Nc1ncccc1-c1nc2ccc(-n3cccn3)nc2n1-c1ccc2c(c1)CC[C@@H]2n1cnnc1Cc1ccccc1 [Compound 169, (S)-3-(3-(1-(3-benzyl-4H-1,2,4-triazol-4-yl)-2,3-dihydro-1H-inden-5-yl)-5-(1H-pyrazol-1-yl)-3H-imidazo[4,5-b]pyridin-2-yl)pyridin-2-amine]
IC50 (AKT1 WT; [1]): 12 nM
IC50 (AKT2; [1]): 228 nM

SMILES: Cn1ccc(CN[C@H]2CCc3cc(-n4c(-c5cccnc5N)nc5ccc(-n6cccn6)nc54)ccc32)n1 [Compound 206]
IC50 (AKT1 WT; [1]): 121 nM
IC50 (AKT2; [1]): 1780 nM

SMILES: CC(=O)N1CCC(N[C@H]2CCc3cc(-n4c(-c5cccnc5N)nc5ccc(-n6cccn6)nc54)ccc32)CC1 [Compound 109]
IC50 (AKT1 WT; [1]): 257 nM
IC50 (AKT2; [1]): 5830 nM
